Assay results published in patent US20070191397A1, “Fungicidal mixtures based on oxime ether derivatives” (priority 2004, published 2007).

Tests used:
Puccinia recondita = assay: Curative action against brown rust of wheat caused by Puccinia recondita; assay type: in vivo; conditions: wheat cultivar Kanzler, 7 days
Method: (§1) The active compounds, separately or jointly, were prepared as a stock solution with 0.25% by weight of active compound in acetone or DMSO. 1% by weight of the emulsifier Uniperol® EL (wetting agent having emulsifying and dispersing action based on ethoxylated alkylphenols) was added to this solution, and the solution was diluted with water to the desired concentration.
(§2) Evaluation was carried out by determining the infected leaf areas in percent. These percentages were converted into efficacies. The efficacy (E) is calculated as follows using Abbot's formula: E=(1−α/β)·100 α corresponds to the fungicidal infection of the treated plants in % and β corresponds to the fungicidal infection of the untreated (control) plants in %
(§3) An efficacy of 0 means that the infection level of the treated plants corresponds to that of the untreated control plants; an efficacy of 100 means that the treated plants were not infected.
(§4) The expected efficacies of the mixtures of active compounds are determined using Colby's formula [R.S. Colby, Weeds 15, 20-22 (1967)] and compared with the observed efficacies. Colby's formula: E=x+y−x·y/100 E expected efficacy, expressed in % of the untreated control, when using the mixture of the active compounds A and B at the concentrations a and b x efficacy, expressed in % of the untreated control, when using active compound A at the concentration a y efficacy, expressed in % of the untreated control, when using active compound B at the concentration b
Leaves of wheat seedlings of the cultivar “Kanzler”, grown in pots, were dusted with spores of brown rust (Puccinia recondita). The pots were then placed in the chamber with high atmospheric humidity (90-95%), at 20-22° C., for 24 hours. During this time the spores germinated and the germinal tubes penetrated into the leaf tissue. The next day, the infected plants were sprayed to runoff point with an aqueous suspension having the concentration of active compounds stated below. After the spray coating had dried on, the test plants were cultivated in a greenhouse at 20-22° C. and 65-70% relative atmospheric humidity for 7 days. Thereafter, the extent of the rust fungus development on the leaves was determined.

[1] = tested on: Erysiphe [syn. Blumeria] graminis form a specialis tritici; assay: Activity against mildew of wheat caused by Erysiphe [syn. Blumeria] graminis forma specialis tritici; assay type: in vivo
Method: as §1, §2, §3, §4
Leaves of wheat seedlings of the cultivar “Kanzler” grown in pots, were sprayed to runoff point with an aqueous suspension having the concentration of active compounds stated below. 24 hours after the spray coating had dried on, dusted with spores of mildew of wheat (Erysiphe [syn. Blumeria] graminis form a specialis tritici). The test plants were then placed in a greenhouse at 20-24° C. and 60-90% relative atmospheric humidity. After 7 days, the extent of the mildew development was determined visually in % infection of the entire leaf area.

Compound | Efficacy in % of the untreated control (Puccinia recondita; 0.06 ppm in the spray liquor) [%] | Efficacy in % of the untreated control (Puccinia recondita; 0.25 ppm in the spray liquor) [%] | Efficacy in % of the untreated control (Puccinia recondita; 1 ppm in the spray liquor) [%] | Efficacy in % of the untreated control ([1]; 0.25 ppm) [%] | Efficacy in % of the untreated control (Puccinia recondita; 4 ppm in the spray liquor) [%] | Efficacy in % of the untreated control ([1]; 0.25 ppm in the spray liquor, wheat cultivar Kanzler, sprayed 24 h before inoculation, 7 days) [%] | Efficacy in % of the untreated control ([1]; 1 ppm in the spray liquor, wheat cultivar Kanzler, sprayed 24 h before inoculation, 7 days) [%] | Efficacy in % of the untreated control ([1]; 4 ppm in the spray liquor, wheat cultivar Kanzler, sprayed 24 h before inoculation, 7 days) [%]
O=C(Cc1ccccc1)N/C(=N\OCC1CC1)c1c(OC(F)F)ccc(F)c1F [II.14] | 0 | 0 | 0 |  |  |  |  | 
O=C(Cc1ccccc1)N/C(=N\OCC1CC1)c1c(C(F)(F)F)ccc(F)c1F [II.1] |  |  |  | 70 |  |  |  | 
CC1CCN(c2c(-c3c(F)cc(F)cc3F)c(Cl)nc3ncnn23)CC1 [I, 5-chloro-7-(4-methylpiperidin-1-yl)-6-(2,4,6-trifluoro-phenyl)-[1,2,4]triazolo[1,5-a]pyrimidine] |  |  | 0 |  | 89 | 0 | 9 | 60
